*1 amine or outer side, *2 acyl side, *3 side chain or, on linkers, in order; H or OH if unused. Where a SMILES comes first, the peptide text is derived from it. Side-chain parts run from the residue outwards. The star is where a group is joined. C18 diacid = O=C(O)CCCCCCCCCCCCCCCCC(=O)*; γGlu = O=C(O)[C@H](CCC(=O)[*:2])N[*:1]; Isovaleryl = CC(C)CC(=O)*; Ahx = NCCCCCC(=O)O
Legend:
[1] = biological target: T1, Human Neuropeptide Y2 Receptor (Homo sapiens, UniProt P49146); assay: Radioligand binding competition assay (RLB); conditions: Table 3, 125I-PYY(1-36) competition; read-out: Ki
T1 construct: purchased CHEMICON HTS066M
T1 sequence (P49146 1-381): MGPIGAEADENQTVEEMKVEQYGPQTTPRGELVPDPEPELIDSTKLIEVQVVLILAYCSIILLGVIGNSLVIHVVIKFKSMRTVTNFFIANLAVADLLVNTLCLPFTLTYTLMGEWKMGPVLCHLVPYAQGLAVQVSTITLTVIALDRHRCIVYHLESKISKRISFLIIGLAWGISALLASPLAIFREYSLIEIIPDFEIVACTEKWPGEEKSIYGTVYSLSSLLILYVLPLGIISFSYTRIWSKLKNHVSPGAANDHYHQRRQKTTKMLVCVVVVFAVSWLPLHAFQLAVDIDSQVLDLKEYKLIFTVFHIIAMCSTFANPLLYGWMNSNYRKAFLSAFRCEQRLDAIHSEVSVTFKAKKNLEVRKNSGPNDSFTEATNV
Procedure, shortened: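 Peptides were serially diluted from 1 mM DMSO stocks and competed for radioligand binding to receptor membranes (0.5 μg/well) over 2 h at room temperature, pH 7.4 HEPES buffer. Bound radioactivity on filters was counted by scintillation, and IC50 was derived by nonlinear regression.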

Solubility determination = conditions: for Sol6: pH 6; for Sol7: pH 7
Procedure, shortened: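 Sample: TFA-salt peptide at 10 mg/ml target in 0.1 M Na diphosphate, pH 6.4 or 7.0, shaken 2 h RT, filtered, diluted to 1 mg/ml.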

Structure (SMILES)	Ki [1] [nM]	Sol6 (Solubility determination) [mg/mL]	Sol7 (Solubility determination) [mg/mL]
CC[C@H](C)[C@H](NC(=O)[C@H](CCC(=O)O)NC(=O)[C@H](CCC(=O)O)NC(=O)[C@@H]1CCCN1C(=O)[C@@H](NC(=O)[C@H](C)NC(=O)[C@H](CC(=O)O)NC(=O)[C@H](CCC(=O)O)NC(=O)[C@H](CCC(=O)O)NC(=O)[C@@H]1CCCN1C(=O)[C@H](CCCCNC(=O)CCCCCNC(=O)CC[C@H](NC(=O)CCCCCCCCCCCCCCCCC(=O)O)C(=O)O)NC(=O)[C@H](CCC(=O)O)NC(=O)[C@@H]1CCCN1C(=O)[C@H](C)NC(=O)CC(C)C)[C@@H](C)O)C(=O)N[C@@H](CCC(N)=O)C(=O)N[C@@H](CCCNC(=N)N)C(=O)N[C@@H](Cc1ccc(O)cc1)C(=O)N[C@@H](Cc1ccc(O)cc1)C(=O)N[C@H](C(=O)N[C@@H](CO)C(=O)N[C@@H](CC(C)C)C(=O)N[C@@H](CCCNC(=N)N)C(=O)N[C@@H](Cc1c[nH]cn1)C(=O)N[C@@H](Cc1ccc(O)cc1)C(=O)N[C@@H](CCC(N)=O)C(=O)N[C@@H](CC(N)=O)C(=O)N[C@@H](Cc1c[nH]c2ccccc12)C(=O)N[C@@H](CC(C)C)C(=O)N[C@H](C(=O)N[C@@H](CCCNC(=N)N)C(=O)N[C@@H](CCC(N)=O)C(=O)N[C@@H](CCCNC(=N)N)C(=O)N[C@@H](Cc1ccc(O)cc1)C(N)=O)[C@@H](C)O)C(C)C [Compound 113, N{alpha-4}-(3-methylbutanoyl)-N{epsilon-7}-(6-[(4S)-4-carboxy-4-(17-carboxyheptadecanamido)butanamido]hexanoyl)-[4A,7K,9E,13T,17I,18Q,22V,28Q,30W,31L]-hPYY(4-36)]	3.53	>10.0	10.0
CC(C)CC(=O)N[C@@H](C)C(=O)N1CCC[C@H]1C(=O)N[C@@H](CCC(=O)O)C(=O)N[C@@H](CCCCNC(=O)CCCCCNC(=O)CC[C@H](NC(=O)CCCCCCCCCCCCCCCCC(=O)O)C(=O)O)C(=O)N1CCC[C@H]1C(=O)N[C@@H](CCC(=O)O)C(=O)N[C@@H](CCC(=O)O)C(=O)N[C@@H](C)C(=O)N[C@@H](C)C(=O)N[C@@H](CO)C(=O)N1CCC[C@H]1C(=O)N[C@@H](CCC(=O)O)C(=O)N[C@@H](CCC(=O)O)C(=O)N[C@@H](CC(C)C)C(=O)N[C@@H](CCC(N)=O)C(=O)N[C@@H](CCCNC(=N)N)C(=O)N[C@@H](Cc1ccc(O)cc1)C(=O)N[C@@H](Cc1ccc(O)cc1)C(=O)N[C@H](C(=O)N[C@@H](C)C(=O)N[C@@H](CC(C)C)C(=O)N[C@@H](CCCNC(=N)N)C(=O)N[C@@H](Cc1c[nH]cn1)C(=O)N[C@@H](Cc1ccc(O)cc1)C(=O)N[C@@H](Cc1ccc(O)cc1)C(=O)N[C@@H](CC(N)=O)C(=O)N[C@@H](Cc1c[nH]c2ccccc12)C(=O)N[C@@H](CC(C)C)C(=O)N[C@H](C(=O)N[C@@H](CCCNC(=N)N)C(=O)N[C@@H](CCC(N)=O)C(=O)N[C@@H](CCCNC(=N)N)C(=O)N[C@@H](Cc1ccc(O)cc1)C(N)=O)[C@@H](C)O)C(C)C [Compound 73, N{alpha-4}-(3-methylbutanoyl)-N{epsilon-7}-(6-[(4S)-4-carboxy-4-(17-carboxyheptadecanamido)butanamido]hexanoyl)-[4A,7K,9E,11A,18Q,22V,23A,28Y,30W,31L]-hPYY(4-36)]	2.16	8.6	8.2
CC(C)CC(=O)N[C@@H](C)C(=O)N1CCC[C@H]1C(=O)N[C@@H](CCC(=O)O)C(=O)N[C@@H](CCCCNC(=O)CCCCCNC(=O)CC[C@H](NC(=O)CCCCCCCCCCCCCCCCC(=O)O)C(=O)O)C(=O)N1CCC[C@H]1C(=O)N[C@@H](CCC(=O)O)C(=O)N[C@@H](C)C(=O)N1CCC[C@H]1C(=O)N[C@@H](C)C(=O)N[C@@H](CO)C(=O)N1CCC[C@H]1C(=O)N[C@@H](CCC(=O)O)C(=O)N[C@@H](CCC(=O)O)C(=O)N[C@@H](CC(C)C)C(=O)N[C@@H](CCC(N)=O)C(=O)N[C@@H](CCCNC(=N)N)C(=O)N[C@@H](Cc1ccc(O)cc1)C(=O)N[C@@H](Cc1ccc(O)cc1)C(=O)N[C@H](C(=O)N[C@@H](CO)C(=O)N[C@@H](CC(C)C)C(=O)N[C@@H](CCCNC(=N)N)C(=O)N[C@@H](Cc1c[nH]cn1)C(=O)N[C@@H](Cc1ccc(O)cc1)C(=O)N[C@@H](Cc1ccc(O)cc1)C(=O)N[C@@H](CC(N)=O)C(=O)N[C@@H](Cc1c[nH]c2ccccc12)C(=O)N[C@@H](CC(C)C)C(=O)N[C@H](C(=O)N[C@@H](CCCNC(=N)N)C(=O)N[C@@H](CCC(N)=O)C(=O)N[C@@H](CCCNC(=N)N)C(=O)N[C@@H](Cc1ccc(O)cc1)C(N)=O)[C@@H](C)O)C(C)C [Compound 192, N{alpha-4}-(3-methylbutanoyl)-N{epsilon-7}-(6-[(4S)-4-carboxy-4-(17-carboxyheptadecanamido)butanamido]hexanoyl)-[4A,7K,9E,10A,11P,18Q,22V,28Y,30W,31L]-hPYY(4-36)] (Isovaleryl-APEK([Ahx-γGlu-C18 diacid])PEAPASPEELQRYYVSLRHYYNWLTRQRY-NH2)	0.74	0.0	9.0

Continued, values first:

Ki [1] [nM]	Sol6 (Solubility determination) [mg/mL]	Sol7 (Solubility determination) [mg/mL]	Structure (SMILES)
1.45	9.1	8.9	CC(C)CC(=O)N[C@@H](C)C(=O)N1CCC[C@H]1C(=O)N[C@@H](CCC(=O)O)C(=O)N[C@@H](CCCCNC(=O)CCCCCNC(=O)CC[C@H](NC(=O)CCCCCCCCCCCCCCCCC(=O)O)C(=O)O)C(=O)N1CCC[C@H]1C(=O)N[C@@H](CCC(=O)O)C(=O)N[C@@H](C)C(=O)N[C@@H](CC(=O)O)C(=O)N[C@@H](C)C(=O)N[C@@H](CO)C(=O)N1CCC[C@H]1C(=O)N[C@@H](CCC(=O)O)C(=O)N[C@@H](CCC(=O)O)C(=O)N[C@@H](CC(C)C)C(=O)N[C@@H](CCC(N)=O)C(=O)N[C@@H](CCCNC(=N)N)C(=O)N[C@@H](Cc1ccc(O)cc1)C(=O)N[C@@H](Cc1ccc(O)cc1)C(=O)N[C@H](C(=O)N[C@@H](CCC(N)=O)C(=O)N[C@@H](CC(C)C)C(=O)N[C@@H](CCCNC(=N)N)C(=O)N[C@@H](Cc1c[nH]cn1)C(=O)N[C@@H](Cc1ccc(O)cc1)C(=O)N[C@@H](Cc1ccc(O)cc1)C(=O)N[C@@H](CC(N)=O)C(=O)N[C@@H](Cc1c[nH]c2ccccc12)C(=O)N[C@@H](CC(C)C)C(=O)N[C@H](C(=O)N[C@@H](CCCNC(=N)N)C(=O)N[C@@H](CCC(N)=O)C(=O)N[C@@H](CCCNC(=N)N)C(=O)N[C@@H](Cc1ccc(O)cc1)C(N)=O)[C@@H](C)O)C(C)C [Compound 121, N{alpha-4}-(3-methylbutanoyl)-N{epsilon-7}-(6-[(4S)-4-carboxy-4-(17-carboxyheptadecanamido)butanamido]hexanoyl)-[4A,7K,9E,10A,18Q,22V,23Q,28Y,30W,31L]-hPYY(4-36)]
0.58	0.0	0.4	CC[C@H](C)[C@H](NC(=O)[C@H](CCC(=O)O)NC(=O)[C@H](CCC(=O)O)NC(=O)[C@@H]1CCCN1C(=O)[C@H](CO)NC(=O)[C@H](C)NC(=O)[C@H](C)NC(=O)[C@H](CCC(=O)O)NC(=O)[C@@H]1CCCN1C(=O)[C@@H]1CCCN1C(=O)[C@H](CCCCNC(=O)CCCCCNC(=O)CC[C@H](NC(=O)CCCCCCCCCCCCCCCCC(=O)O)C(=O)O)NC(=O)[C@H](CCC(=O)O)NC(=O)[C@@H]1CCCN1C(=O)[C@H](C)NC(=O)CC(C)C)C(=O)N[C@@H](CCC(N)=O)C(=O)N[C@@H](CCCNC(=N)N)C(=O)N[C@@H](Cc1ccc(O)cc1)C(=O)N[C@@H](Cc1ccc(O)cc1)C(=O)N[C@H](C(=O)N[C@@H](C)C(=O)N[C@@H](CC(C)C)C(=O)N[C@@H](CCCNC(=N)N)C(=O)N[C@@H](Cc1c[nH]cn1)C(=O)N[C@@H](Cc1ccc(O)cc1)C(=O)N[C@@H](Cc1ccc(O)cc1)C(=O)N[C@@H](CC(N)=O)C(=O)N[C@@H](Cc1c[nH]c2ccccc12)C(=O)N[C@@H](CC(C)C)C(=O)N[C@H](C(=O)N[C@@H](CCCNC(=N)N)C(=O)N[C@@H](CCC(N)=O)C(=O)N[C@@H](CCCNC(=N)N)C(=O)N[C@@H](Cc1ccc(O)cc1)C(N)=O)[C@@H](C)O)C(C)C [Compound 158, N{alpha-4}-(3-methylbutanoyl)-N{epsilon-7}-(6-[(4S)-4-carboxy-4-(17-carboxyheptadecanamido)butanamido]hexanoyl)-[4A,7K,9P,11A,17I,18Q,22V,23A,28Y,30W,31L]-hPYY(4-36)]

From US12391737B2, “Soluble NPY2 receptor agonists” (Boehringer Ingelheim International GmbH, priority 2020, dated 2025)
